Measurements as given in DBAASP.
In brackets after ≈: the same amount, converted by molar mass.

Experiments:
Assay in all cases: ≥ marks a high value that may be exact or a test limit, other limits are often not marked, values filed in µg/mL are converted to µM
Escherichia coli BL21 = test system: Escherichia coli BL21
[1] = test system: Pseudomonas aeruginosa PAO1
Pseudomonas syringae = test system: Pseudomonas syringae
[2] = test system: Streptococcus pyogenes GAS M1T1
[3] = test system: Xanthomonas axonopodis pv. phaseoli ATCC 9563
[4] = test system: Candida albicans NCPF 1467
[5] = test system: Escherichia coli NCTC 10418
[6] = test system: Staphylococcus aureus ATCC 12493
[7] = test system: Staphylococcus aureus NCTC 10788
[8] = test system: Acinetobacter baumannii KCTC 2508
[9] = test system: Klebsiella pneumoniae KCTC 2208
[10] = test system: Pseudomonas aeruginosa ATCC 27853
[11] = test system: Acinetobacter baumannii ATCC 19606
Acinetobacter baumannii = test system: Acinetobacter baumannii
[12] = test system: Bacillus subtilis ATCC 6051
[13] = test system: Candida albicans ATCC 90028
[14] = test system: Cryptococcus neoformans ATCC 208821
[15] = test system: Escherichia coli ATCC 25922
[16] = test system: Klebsiella pneumoniae ATCC 13883
[17] = test system: Klebsiella pneumoniae ATCC 700603
[18] = test system: Klebsiella pneumoniae ATCC BAA-2146
Klebsiella pneumoniae = test system: Klebsiella pneumoniae
Pseudomonas aeruginosa = test system: Pseudomonas aeruginosa
[19] = test system: Staphylococcus aureus ATCC 43300
Escherichia coli K-12 = test system: Escherichia coli K-12
[20] = test system: Staphylococcus aureus NCTC 8325-4

Compound CC[C@H](C)[C@H](NC(=O)[C@H](CCC(=O)O)NC(=O)[C@H](CC(N)=O)NC(=O)[C@H](CCCCN)NC(=O)[C@H](CC(C)C)NC(=O)[C@H](Cc1ccc(O)cc1)NC(=O)[C@H](CCCCN)NC(=O)[C@H](CCCN=C(N)N)NC(=O)[C@@H](NC(=O)[C@@H](NC(=O)[C@H](CCC(=O)O)NC(=O)[C@H](CCCCN)NC(=O)[C@H](Cc1c[nH]c2ccccc12)NC(=O)[C@H](C)N)[C@@H](C)O)[C@@H](C)CC)C(=O)N[C@@H](CCCCN)C(=O)N[C@@H](CCCCN)C(=O)N[C@@H](CCCCN)C(=O)N[C@@H](Cc1c[nH]c2ccccc12)C(=O)N[C@@H](CCCN=C(N)N)C(=O)N[C@@H](CCCCN)C(=O)N[C@@H](C)C(=O)N[C@H](C(=O)N[C@H](C(=O)N[C@@H](C)C(=O)N[C@@H](Cc1c[nH]c2ccccc12)C(=O)O)[C@@H](C)CC)C(C)C [AWKETIRKYLKNEIKKKWRKAVIAW] has an MIC (Escherichia coli BL21) of 2 µM (≈ 6.38 µg/mL), an MIC [1] of 8 µM (≈ 25.5 µg/mL) and an MIC (Pseudomonas syringae) of 8 µM (≈ 25.5 µg/mL). The MIC [2] was 10 µM (≈ 31.9 µg/mL) and the MIC [3] was 2 µM (≈ 6.38 µg/mL).

CC[C@H](C)[C@H](NC(=O)[C@H](CCCCN)NC(=O)[C@H](CC(N)=O)NC(=O)[C@H](CCCCN)NC(=O)[C@H](CC(C)C)NC(=O)[C@H](Cc1ccc(O)cc1)NC(=O)[C@H](CCC(N)=O)NC(=O)[C@H](CCCN=C(N)N)NC(=O)[C@@H](NC(=O)[C@@H](NC(=O)[C@H](CCC(=O)O)NC(=O)[C@H](CCCCN)NC(=O)[C@H](Cc1c[nH]c2ccccc12)NC(=O)[C@H](C)N)[C@@H](C)O)[C@@H](C)CC)C(=O)N[C@@H](CCCCN)C(=O)N[C@@H](CCCCN)C(=O)N[C@@H](CCCCN)C(=O)N[C@@H](Cc1c[nH]c2ccccc12)C(=O)N[C@@H](CCCN=C(N)N)C(=O)N[C@@H](CCCCN)C(=O)N[C@@H](C)C(=O)N[C@H](C(=O)N[C@H](C(=O)N[C@@H](C)C(=O)N[C@@H](Cc1c[nH]c2ccccc12)C(=O)O)[C@@H](C)CC)C(C)C [AWKETIRQYLKNKIKKKWRKAVIAW] showed an MIC (Escherichia coli BL21) of 2 µM (≈ 6.37 µg/mL), an MIC (Pseudomonas syringae) of 8 µM (≈ 25.5 µg/mL) and an MIC [2] of 10 µM (≈ 31.9 µg/mL). For the same compound, the MIC [3] was 1 µM (≈ 3.19 µg/mL).

With CC(C)C[C@H](NC(=O)[C@H](CC(C)C)NC(=O)[C@H](CCCCN)NC(=O)[C@@H]1CCCN1C(=O)[C@H](CC(C)C)NC(=O)[C@@H](N)Cc1ccccc1)C(=O)N[C@@H](C)C(=O)NCC(=O)N[C@@H](CC(C)C)C(=O)N1CCC[C@H]1C(=O)N[C@@H](CO)C(=O)N[C@@H](Cc1ccccc1)C(=O)N[C@@H](CC(C)C)C(=O)N[C@H]1CSSC[C@@H](C(=O)O)NC(=O)[C@H](CCCCN)NC(=O)[C@H](CCCCN)NC(=O)[C@H](Cc2ccccc2)NC(=O)[C@H](C(C)C)NC(=O)[C@H](CC(C)C)NC1=O [FLPKLLAGLPSFLCLVFKKC] the MIC [4] was 8 µM (≈ 17.9 µg/mL), the MIC [5] was 16 µM (≈ 35.8 µg/mL) and the MIC [6] was 8 µM (≈ 17.9 µg/mL). It also gave an MIC [7] of 16 µM (≈ 35.8 µg/mL).

CC[C@H](C)[C@H](N)C(=O)N[C@@H](C)C(=O)N[C@@H](CCCN=C(N)N)C(=O)N[C@@H](CCCN=C(N)N)C(=O)N[C@@H](C)C(=O)N[C@@H](CC(C)C)C(=O)N[C@@H](CCCCN)C(=O)N[C@@H](CCCCN)C(=O)N[C@@H](C)C(=O)N[C@@H](CCCCN)C(=O)N[C@@H](CCCN=C(N)N)C(=O)N[C@@H](C)C(=O)N[C@@H](C)C(=O)N[C@@H](Cc1cnc[nH]1)C(=O)N[C@@H](CCCCN)C(=O)N[C@H](C(=O)N1CCC[C@H]1C(=O)N[C@@H](C)C(=O)N[C@@H](C)C(=O)N[C@@H](CCCCN)C(=O)N[C@@H](CCCCN)C(=O)N[C@@H](Cc1ccccc1)C(=O)NCC(=O)N[C@@H](CCCN=C(N)N)C(=O)N[C@@H](CCCN=C(N)N)C(N)=O)[C@@H](C)CC [IARRALKKAKRAAHKIPAAKKFGRR] was tested, and the MIC [8] was 8 µM (≈ 22.7 µg/mL), the MIC [9] was 2 µM (≈ 5.69 µg/mL) and the MIC [10] was 16 µM (≈ 45.5 µg/mL).

CC[C@H](C)[C@H](N)C(=O)N[C@@H](C)C(=O)N[C@@H](CCCN=C(N)N)C(=O)N[C@@H](CCCN=C(N)N)C(=O)N[C@@H](C)C(=O)N[C@@H](CC(C)C)C(=O)N[C@@H](CCCCN)C(=O)N[C@@H](CCCCN)C(=O)N[C@@H](C)C(=O)N[C@@H](CCCCN)C(=O)N[C@@H](CCCN=C(N)N)C(=O)N[C@@H](C)C(=O)N[C@@H](C)C(=O)N[C@@H](Cc1cnc[nH]1)C(=O)N[C@@H](CCCCN)C(=O)N[C@H](C(=O)N1CCC[C@H]1C(=O)N[C@@H](C)C(=O)N[C@@H](CS)C(=O)N[C@@H](CCCCN)C(=O)N[C@@H](CCCCN)C(=O)N[C@@H](Cc1ccccc1)C(=O)NCC(=O)N[C@@H](CCCN=C(N)N)C(=O)N[C@@H](CCCN=C(N)N)C(N)=O)[C@@H](C)CC [IARRALKKAKRAAHKIPACKKFGRR] was tested, and the MIC [8] was 16 µM (≈ 46 µg/mL), the MIC [9] was 8 µM (≈ 23 µg/mL) and the MIC [10] was 2 µM (≈ 5.75 µg/mL).

For CC[C@H](C)[C@@H]1NC(=O)CNC(=O)[C@H](CCCN=C(N)N)NC(=O)[C@H](C)NC(=O)[C@@H]2CSSC[C@H](NC1=O)C(=O)N[C@@H](Cc1ccc(O)cc1)C(=O)N[C@@H](CCCN=C(N)N)C(=O)N[C@@H](CCCN=C(N)N)C(=O)N[C@H](C(=O)N[C@@H](CCCN=C(N)N)C(=O)O)CSSC[C@H](NC(=O)[C@H](Cc1c[nH]c3ccccc13)NC(=O)[C@@H](N)CCCCN)C(=O)N[C@@H](Cc1ccccc1)C(=O)N[C@@H](CCCN=C(N)N)C(=O)N[C@@H](C(C)C)C(=O)N2 [KWCFRVCARGICYRRCR], the MIC [11] was 0.0574 µM (≈ 0.125 µg/mL), the MIC (Acinetobacter baumannii) was 0.23 µM (≈ 0.499 µg/mL) and the MIC [12] was 0.115 µM (≈ 0.25 µg/mL). It also gave an MIC [13] of 3.68 µM (≈ 7.99 µg/mL), an MIC [14] of 0.23 µM (≈ 0.499 µg/mL) and an MIC [15] of 0.0276 µM (≈ 0.06 µg/mL). The MIC [16] was 0.0574 µM (≈ 0.125 µg/mL), the MIC [17] was 0.0574 µM (≈ 0.125 µg/mL) and the MIC [18] was 0.23 µM (≈ 0.499 µg/mL). It also gave an MIC (Klebsiella pneumoniae) of 3.68 µM (≈ 7.99 µg/mL), an MIC [10] of 0.459 µM (≈ 0.998 µg/mL) and an MIC (Pseudomonas aeruginosa) of 0.919 µM (≈ 2 µg/mL). The MIC [19] was 1.84 µM (≈ 3.99 µg/mL).

In the case of CC(C)[C@@H]1NC(=O)[C@H](CCCN=C(N)N)NC(=O)[C@H](Cc2ccccc2)NC(=O)[C@@H](NC(=O)[C@H](Cc2c[nH]c3ccccc23)NC(=O)[C@@H](N)CCCCN)CSSC[C@@H](C(=O)N[C@@H](CCCN=C(N)N)C(=O)O)NC(=O)[C@H](CCCN=C(N)N)NC(=O)[C@H](CCCN=C(N)N)NC(=O)[C@H](Cc2ccc(O)cc2)NC(=O)[C@@H]2CSSC[C@H](NC1=O)C(=O)N[C@@H](Cc1ccc(O)cc1)C(=O)N[C@@H](CCCN=C(N)N)C(=O)NCC(=O)N[C@@H](C)C(=O)N2 [KWCFRVCYRGACYRRCR], the MIC [11] is reported as 0.112 µM (≈ 0.25 µg/mL), the MIC (Acinetobacter baumannii) is reported as 0.112 µM (≈ 0.25 µg/mL) and the MIC [12] is reported as 0.0561 µM (≈ 0.125 µg/mL). It also gave an MIC [13] of 0.898 µM (≈ 2 µg/mL), an MIC [14] of 0.225 µM (≈ 0.499 µg/mL) and an MIC [15] of 0.0561 µM (≈ 0.125 µg/mL). It also gave an MIC [16] of 0.112 µM (≈ 0.25 µg/mL), an MIC [17] of 0.225 µM (≈ 0.499 µg/mL) and an MIC [18] of 0.112 µM (≈ 0.25 µg/mL). It also gave an MIC (Klebsiella pneumoniae) of 3.59 µM (≈ 7.99 µg/mL), an MIC [10] of 0.112 µM (≈ 0.25 µg/mL) and an MIC (Pseudomonas aeruginosa) of 0.449 µM (≈ 0.998 µg/mL). It also gave an MIC [19] of 0.898 µM (≈ 2 µg/mL).

For NCCCC[C@H](NC(=O)[C@H](CCCCN)NC(=O)[C@H](Cc1c[nH]c2ccccc12)NC(=O)[C@H](Cc1c[nH]c2ccccc12)NC(=O)[C@H](CCCCN)NC(=O)[C@H](CCCCN)NC(=O)[C@@H](N)Cc1c[nH]c2ccccc12)C(=O)N[C@@H](Cc1c[nH]c2ccccc12)C(N)=O [WKKWWKKW], the MIC (Escherichia coli K-12) was 31.3 µM (≈ 39.9 µg/mL), the MIC (Klebsiella pneumoniae) was 250 µM (≈ 319 µg/mL) and the MIC [1] was > 250 µM. For the same compound, the MIC [20] was ≥ 62.5 µM.
